Assay results reported in patent publication US11202789B2, “Method of treating glycogen storage disease” (Viking Therapeutics, Inc., priority 2016, dated 2021).

System: male ob/ob mice
Assay: 9-week efficacy and safety study in male ob/ob mice
Assay type: in vivo
Conditions: T3 100 nmole/kg/day SC
Procedure: The objective of this study was to evaluate the efficacy and safety of Compound 2 treatment at doses of 3, 10, and 30 mg/kg/day for 9 weeks in male ob/ob mice. 3,3′,5-Triiodo-L-thyronine (T3) was used as a comparator in this study.
Methods: Seventy-eight adult male ob/ob mice were assigned to six different treatment groups (n=6-24/group). Animals were dosed daily with either vehicle [1% carboxymethylcellulose (CMC) in water, PO], T3 [(100 nmole/kg/day in aqueous solution, subcutaneous (SC)], or Compound 2 [3, 10 or 30 mg/kg/day in 1% CMC, PO]. Blood glucose and plasma cholesterol were measured weekly in all animals. Subsets of animals in the vehicle-treated and 30 mg/kg/day Compound 2-treated groups were sacrificed after 3, 6 and 9 weeks of treatment to analyze the temporal effects of Compound 2 on liver weight and liver triglyceride levels. Liver triglyceride levels, liver glycogen content, heart, liver and epididymal fat pad weights, and plasma clinical chemistry parameters were measured at sacrifice.

N[C@@H](Cc1cc(I)c(Oc2ccc(O)c(I)c2)c(I)c1)C(=O)O [Compound T3, 3,3′,5-Triiodo-L-thyronine, reference compound]
ALT levels: decreased
increased plasma triglyceride levels: ~56%
plasma albumin levels: decreased
plasma calcium levels: decreased
total plasma protein levels: decreased
liver weight (9 weeks): lower
blood glucose levels (all time points, vs vehicle): similar
total plasma cholesterol lower (at 9 weeks, vs vehicle): ~66%
terminal liver glycogen levels (vs vehicle): similar
terminal liver triglyceride levels (vs vehicle): similar
